# Measurements as given in the Kinase Knowledgebase extract (Sharma et al. 2016).
# Target: CDK2 (human) (UniProt P24941)
# Test: Enzyme Assay
row,SMILES,Ki [nM]
1,Cn1cnc(NCCCCc2ccc3c(=O)[nH][nH]c3c2)c1,< 1000
2,O=c1[nH][nH]c2cc(OC3CCCC(Nc4cc(C5CC5)[nH]n4)C3)ccc12 (stereo not given),< 1000
3,Cc1cc(Nc2cc(COc3ccc4c(=O)[nH][nH]c4c3)nc3c2CCCCC3)n[nH]1,< 1000
4,O=c1[nH][nH]c2cc([C@@H]3C[C@H]3c3nc(Nc4n[nH]c5ccccc45)c4ccccc4n3)ccc12,< 1000
5,Cn1cnc(NC2CCC(c3ccc4[nH][nH]c(=O)c4c3)C2)c1 (stereo not given),< 1000
6,CCc1cccc2c(Nc3cc(C)[nH]n3)nc(-c3ccc4[nH][nH]c(=O)c4c3OC(F)(F)F)nc12,< 1000
7,O=c1[nH][nH]c2cc(OCC3CCCC3Nc3cc(C4CC4)[nH]n3)ccc12 (stereo not given),< 1000
8,O=c1[nH][nH]c2cc(Nc3nc(Nc4cc(C5CC5)[nH]n4)c4cc(-c5ccccc5Cl)ccc4n3)ccc12,< 1000
9,Cc1cc(Nc2cc(Nc3ccc4c(=O)[nH][nH]c4c3)nc3ccccc23)n[nH]1,< 1000
10,Cc1cnc(NOCCNc2ccc3c(=O)[nH][nH]c3c2)s1,< 1000
11,O=c1[nH][nH]c2cc(Nc3nc(Nc4cc(-c5ccccc5)[nH]n4)cc(-c4cccc([N+](=O)[O-])c4)n3)ccc12,< 1000
12,CCc1cc(Nc2cc(C)[nH]n2)nc(-c2ccc3[nH][nH]c(=O)c3c2)n1,< 1000
13,O=c1[nH][nH]c2ccc(-c3nnc(C4CCCCC4)c(Nc4n[nH]c5ccc(F)cc45)n3)c(C(F)(F)F)c12,< 1000
14,O=c1[nH][nH]c2cc([C@@H]3C[C@H]3c3nc(Nc4n[nH]c5c(F)cccc45)c4ccccc4n3)ccc12,< 1000
15,Cc1cc(Nc2cc(-c3ccccc3C)nc(Oc3ccc4c(=O)[nH][nH]c4c3)n2)n[nH]1,< 1000
16,O=c1[nH][nH]c2cc(C(F)(F)F)c(-c3nc(Nc4n[nH]c5c(F)cc(F)cc45)c4nccnc4n3)cc12,< 1000
17,O=c1[nH][nH]c2cc(NC3CCCC(Nc4cc(C5CC5)[nH]n4)C3)ccc12 (stereo not given),< 1000
18,O=c1[nH][nH]c2cc(NCCCNc3cc(C4CC4)[nH]n3)ccc12,< 1000
19,O=c1[nH][nH]c2cc(Nc3cc4ccccc4c(Nc4n[nH]c5ccccc45)n3)ccc12,< 1000
20,Cc1cc(Nc2nc(NCc3ccc4c(=O)[nH][nH]c4c3)cc3ccccc23)n[nH]1,< 1000
21,O=c1[nH][nH]c2cc(Nc3ccc([N+](=O)[O-])c(Nc4cc(C5CC5)[nH]n4)n3)ccc12,< 1000
22,Cc1cc(Nc2nc(Sc3ccc4c(=O)[nH][nH]c4c3)nc3c(OCCCN(C)C)cccc23)n[nH]1,< 1000
23,O=c1[nH][nH]c2cc(Sc3cccc(Nc4cc(C5CC5)[nH]n4)n3)ccc12,< 1000
24,O=C(CCNc1cc(C2CC2)[nH]n1)Cc1ccc2c(=O)[nH][nH]c2c1,< 1000
25,Cn1cnc(NCCC(Cc2ccccc2)Cc2ccc3c(=O)[nH][nH]c3c2)c1 (stereo not given),< 1000
26,Cn1cnc(NC2COCC(SCc3ccc4c(=O)[nH][nH]c4c3)C2)c1 (stereo not given),< 1000

row,SMILES,Ki [nM]
1,Cc1nc(-c2cc3c(=O)[nH][nH]c3cc2Cl)cc(Nc2n[nH]c3ccc(F)cc23)c1C,< 1000
2,Cc1cnc(NC2CCC(Oc3ccc4c(=O)[nH][nH]c4c3)C2)s1 (stereo not given),< 1000
3,Cc1cc(Nc2cc(C(C)(C)OCCN(C)C)nc(Sc3ccc4c(=O)[nH][nH]c4c3)n2)n[nH]1,< 1000
4,COc1ccc(-c2cc(Nc3cc(C)[nH]n3)nc(Sc3ccc4c(=O)[nH][nH]c4c3)n2)cc1,< 1000
5,Cc1cc(Nc2nc(Sc3ccc4c(=O)[nH][nH]c4c3)nc3cc(N)ccc23)n[nH]1,< 1000
6,O=C(CC(=O)Nc1ccccn1)Nc1ccc2c(=O)[nH][nH]c2c1,< 1000
7,Cc1cc(Nc2nc(Sc3ccc4c(=O)[nH][nH]c4c3)nc3cc(OCCCN4CCOCC4)ccc23)n[nH]1,< 1000
8,Cc1cc(Nc2cc(COCCN(C)C)nc(Sc3ccc4c(=O)[nH][nH]c4c3)n2)n[nH]1,< 1000
9,O=c1[nH][nH]c2cc(Sc3nc(Nc4n[nH]c5ccccc45)c4ccccc4n3)ccc12,< 1000
10,O=c1[nH][nH]c2ccc(-c3nc4c(c(Nc5n[nH]c(-c6cccnc6)n5)n3)CCCC4)c(C(F)(F)F)c12,< 1000
11,Cc1ccc2nc(Nc3ccc4c(=O)[nH][nH]c4c3)nc(Nc3cc(C)[nH]n3)c2n1,< 1000
12,O=c1[nH][nH]c2cc(CSc3cc(Nc4n[nH]c5ccccc45)ccn3)ccc12,< 1000
13,Cc1cc(Nc2nc(Cc3ccc4c(=O)[nH][nH]c4c3)nc3c2CCCC3)n[nH]1,< 1000
14,O=c1[nH][nH]c2cc(Sc3cc(Nc4cc(C5CC5)[nH]n4)c4ccccc4n3)ccc12,< 1000
15,Cc1cc(Nc2nc(Nc3ccc4c(=O)[nH][nH]c4c3)nc3ccc(-c4ccccc4Cl)cc23)n[nH]1,< 1000
16,O=c1[nH][nH]c2cc(OC3CCCC(Nc4nccnn4)C3)ccc12 (stereo not given),< 1000
17,Cc1cc(Nc2nc(Nc3ccc4c(=O)[nH][nH]c4c3)nc3ccccc23)n[nH]1,< 1000
18,O=c1[nH][nH]c2cc(NCCONc3nccnn3)ccc12,< 1000
19,Cc1cc(Nc2nc(C3(c4ccc5c(=O)[nH][nH]c5c4)CC3)nc3ccccc23)n[nH]1,< 1000
20,O=C(CC(=O)Nc1cc(C2CC2)[nH]n1)Nc1ccc2c(=O)[nH][nH]c2c1,< 1000
21,O=c1[nH][nH]c2cc(COc3cc(Nc4n[nH]c5ccccc45)ccn3)ccc12,< 1000
22,Cn1cnc(NCCC(=O)Nc2ccc3c(=O)[nH][nH]c3c2)c1,< 1000
23,O=c1[nH][nH]c2cc(C(F)(F)F)c(-c3cc(Nc4n[nH]c5ccccc45)c4cccnc4n3)cc12,< 1000
24,Cc1cc(Nc2cccc(Sc3ccc4c(=O)[nH][nH]c4c3)n2)n[nH]1,< 1000
25,Cc1nc(-c2ccc3[nH][nH]c(=O)c3c2C(F)(F)F)nc(Nc2n[nH]c(C(C)C)n2)c1C,< 1000

# Second part, the compound after the results:
row,Ki [nM],SMILES
1,< 1000,O=c1[nH][nH]c2ccc(C3COCC(Nc4cc(C5CC5)[nH]n4)C3)cc12 (stereo not given)
2,< 1000,O=C(CCNc1ccccn1)Nc1ccc2c(=O)[nH][nH]c2c1
3,< 1000,O=c1[nH][nH]c2ccc(C3CCC(Nc4ccccn4)C3)cc12 (stereo not given)
4,< 1000,Cn1cnc(NC2CCCC(c3ccc4[nH][nH]c(=O)c4c3)C2)c1 (stereo not given)
5,< 1000,O=c1[nH][nH]c2ccc(-c3nnc(C4CCNCC4)c(Nc4n[nH]c5ccccc45)n3)c(C(F)(F)F)c12
6,< 1000,Cc1cc(Nc2cc(Sc3ccc4c(=O)[nH][nH]c4c3)nc3ccccc23)n[nH]1
7,< 1000,Cc1cc(Nc2cc(-c3ccco3)[nH]n2)nc(Nc2ccc3c(=O)[nH][nH]c3c2)n1
8,< 1000,O=c1[nH][nH]c2cc(Sc3nc(Nc4cc(C5CC5)[nH]n4)cc(N4CCOCC4)n3)ccc12
9,< 1000,O=c1[nH][nH]c2cc(Cl)c(-c3cc4ncccc4c(Nc4n[nH]c5ccccc45)n3)cc12
10,< 1000,Cc1cccc2nc(Nc3ccc4c(=O)[nH][nH]c4c3)nc(Nc3cc(C4CC4)[nH]n3)c12
11,< 1000,Cc1cc(Nc2nc(COc3ccc4c(=O)[nH][nH]c4c3)nc3c2CN(Cc2ccccc2)CC3)n[nH]1
12,< 1000,O=c1[nH][nH]c2cc(Oc3cc4ccccc4c(Nc4cc(C5CC5)[nH]n4)n3)ccc12
13,< 1000,O=C(CC(=O)Oc1ccc2c(=O)[nH][nH]c2c1)Nc1nccnn1
14,< 1000,Cc1cc(Nc2cc(-c3ccccc3)[nH]n2)nc(Nc2ccc3c(=O)[nH][nH]c3c2)n1
15,< 1000,Cc1cc(Nc2cc(CSc3ccc4c(=O)[nH][nH]c4c3)nc3ccccc23)n[nH]1
16,< 1000,O=c1[nH][nH]c2cc(NC3CCCC(Nc4ccccn4)C3)ccc12 (stereo not given)
17,< 1000,Cc1cnc(NC2CCC(c3ccc4[nH][nH]c(=O)c4c3)C2)s1 (stereo not given)
18,< 1000,CC(=O)Nc1cccc(-c2cc(Nc3cc(C)[nH]n3)nc(Oc3ccc4c(=O)[nH][nH]c4c3)n2)c1
19,< 1000,O=c1[nH][nH]c2cc(SCCC(Nc3ccccn3)c3ccccc3)ccc12 (stereo not given)
20,< 1000,Cn1cnc(NC2CCC(Nc3ccc4c(=O)[nH][nH]c4c3)C2)c1 (stereo not given)
21,< 1000,Cc1cnc(NC2CCCC(c3ccc4[nH][nH]c(=O)c4c3)C2)s1 (stereo not given)
22,< 1000,O=c1[nH][nH]c2cc(Sc3nccc(Nc4cc(C5CC5)[nH]n4)n3)ccc12

row,Ki [nM],SMILES
1,< 1000,Cc1cc(Nc2ccnc(Cc3ccc4c(=O)[nH][nH]c4c3)c2)n[nH]1
2,< 1000,CC(C)c1cc(Nc2nc(Nc3ccc4c(=O)[nH][nH]c4c3)nc3ccccc23)n[nH]1
3,< 1000,O=c1[nH][nH]c2cc(OCC3CCCC3Nc3ccccn3)ccc12 (stereo not given)
4,< 1000,CCc1cc(Nc2cc(C)[nH]n2)nc(C(C)(C)c2ccc3c(=O)[nH][nH]c3c2)n1
5,< 1000,Cc1cc(Nc2cc(-c3ccccc3)[nH]n2)nc(COc2ccc3c(=O)[nH][nH]c3c2)n1
6,< 1000,Nc1ncc2c(Nc3n[nH]c4ccccc34)nc(-c3ccc4[nH][nH]c(=O)c4c3C(F)(F)F)nc2n1
7,< 1000,O=C1Cc2nc(-c3ccc4[nH][nH]c(=O)c4c3C(F)(F)F)nc(Nc3n[nH]c4ccccc34)c2CN1
8,< 1000,O=C(CCOc1ccc2c(=O)[nH][nH]c2c1)Nc1cc(C2CC2)[nH]n1
9,< 1000,O=c1[nH][nH]c2cc(C(F)(F)F)c(-c3cc(Nc4n[nH]c(C5CC5)n4)c4ccccc4n3)cc12
10,< 1000,O=c1[nH][nH]c2ccc(OCc3nc(Nc4cc(C5CC5)[nH]n4)c4ccccc4n3)cc12
11,< 1000,O=c1[nH][nH]c2cc(Nc3nc(Nc4cc(C5CC5)[nH]n4)c4cc(Cl)ccc4n3)ccc12
12,< 1000,O=c1[nH][nH]c2ccc(-c3cc(Nc4n[nH]c5c(F)cc(F)cc45)c4ccccc4n3)c(C(F)(F)F)c12
13,< 1000,O=c1[nH][nH]c2cc(CCCCNc3ccccn3)ccc12
14,< 1000,O=c1[nH][nH]c2cc(NC3COCC(Nc4ccccn4)C3)ccc12 (stereo not given)
15,< 1000,O=c1[nH][nH]c2cc(Nc3nc(Nc4cc(C5CC5)[nH]n4)ccc3[N+](=O)[O-])ccc12
16,< 1000,CCc1cc(Nc2nc(Nc3ccc4c(=O)[nH][nH]c4c3)nc3ccccc23)n[nH]1
17,< 1000,O=c1[nH][nH]c2cc(Sc3cccc(Nc4n[nH]c5ccccc45)n3)ccc12
18,< 1000,NC1CCCCC1c1cc(Nc2n[nH]c3ccccc23)nc(-c2ccc3[nH][nH]c(=O)c3c2C(F)(F)F)n1 (stereo not given)
19,< 1000,CN1CCN(C(=O)c2cc(Nc3nc(-c4ccc5[nH][nH]c(=O)c5c4)nc4ccccc34)n[nH]2)CC1
20,< 1000,O=C(CC(=O)Nc1nccnn1)Nc1ccc2c(=O)[nH][nH]c2c1
21,< 1000,O=c1[nH][nH]c2cc(Nc3nc(Nc4cc(C5CC5)[nH]n4)c4cc(N5CCOCC5)ccc4n3)ccc12
22,< 1000,O=C(NC1CC1)c1cc(Nc2nc(-c3ccc4[nH][nH]c(=O)c4c3)nc3ccccc23)n[nH]1
